Data as given in patent US9334263B2, “Compositions useful for treating disorders related to kit” (BLUEPRINT MEDICINES CORPORATION, priority 2013, dated 2016).

Columns and labels:
[1] = molecular target: T1, Kit D816V (HMC1.2 cells, Kit V560G and D816V) (Homo sapiens, UniProt P10721, D816V/V560G); test: HMC1.2 autophosphorylation assay (AlphaLISA, phospho-Y719 c-Kit); format: cell-based; details: Kit autophosphorylation at tyrosine 719, 90 minutes, read-out: Cellular Activity
T1 construct: endogenous in cells; host or cells: HMC1.2 cells
T1 sequence (P10721 26-976 V560G/D816V): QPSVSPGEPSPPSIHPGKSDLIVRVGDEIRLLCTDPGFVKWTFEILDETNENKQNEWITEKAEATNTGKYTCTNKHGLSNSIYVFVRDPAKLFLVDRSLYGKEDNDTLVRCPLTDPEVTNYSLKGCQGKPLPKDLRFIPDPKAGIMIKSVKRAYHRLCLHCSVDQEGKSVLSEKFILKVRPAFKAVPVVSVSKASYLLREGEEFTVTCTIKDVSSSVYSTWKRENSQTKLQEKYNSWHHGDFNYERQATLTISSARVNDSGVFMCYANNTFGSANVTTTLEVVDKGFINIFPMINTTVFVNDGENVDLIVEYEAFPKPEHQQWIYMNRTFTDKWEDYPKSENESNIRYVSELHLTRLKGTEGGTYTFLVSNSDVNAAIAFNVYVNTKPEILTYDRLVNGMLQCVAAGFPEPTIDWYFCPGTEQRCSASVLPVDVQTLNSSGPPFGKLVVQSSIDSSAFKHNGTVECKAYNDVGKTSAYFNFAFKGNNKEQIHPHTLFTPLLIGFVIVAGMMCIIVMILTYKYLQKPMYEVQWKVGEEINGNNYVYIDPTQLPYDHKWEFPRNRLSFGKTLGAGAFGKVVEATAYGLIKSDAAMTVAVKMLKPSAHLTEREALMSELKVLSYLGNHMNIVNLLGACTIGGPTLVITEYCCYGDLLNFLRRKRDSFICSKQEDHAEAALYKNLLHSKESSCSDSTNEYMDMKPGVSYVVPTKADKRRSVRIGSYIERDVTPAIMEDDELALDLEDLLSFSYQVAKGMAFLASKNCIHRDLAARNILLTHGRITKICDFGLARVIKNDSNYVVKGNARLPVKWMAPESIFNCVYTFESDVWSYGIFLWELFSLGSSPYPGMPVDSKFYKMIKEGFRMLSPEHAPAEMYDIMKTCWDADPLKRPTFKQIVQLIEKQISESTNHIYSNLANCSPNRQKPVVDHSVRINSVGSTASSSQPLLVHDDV
Description: HMC1.2 Autophosphorylation Assay:
10,000 HMC1.2 cells were incubated in 22 ul culture media (phenol-red free IMDM, no serum) in each well of a 384-well plate and serum starved overnight in a tissue culture incubator (5% CO2, 37° C.). A 10-point dose concentration series of compound (25 uM-95.4 pM) were then added to the cells in a volume of 3.1 ul to each well (0.25% DMSO final concentration). After 90 minutes, 6 ul of 5× AlphaLISA Lysis Buffer (Perkin Elmer) supplemented with a protease and phosphatase inhibitor cocktail (Cell Signaling Technologies) was added to each well and shaken at 450 rpm for 15 minutes at 4° C. 10 ul of phospho-Y719 c-Kit and total c-Kit antibodies (15 nM final concentration, Cell Signaling Technologies) and 50 ug/ml AlphaLISA rabbit acceptor beads (Perkin Elmer) were added to each well and shaken at 300 rpm at room temperature for 2 hours. 10 ul of 100 ug/ml streptavidin donor beads (Perkin Elmer) were added to each well, blocked from light with aluminum adhesive and shaken at 300 rpm at room temperature for 2 hours. Fluorescence signal was obtained on Envision (Perkin Elmer) by AlphaScreen 384 well HTS protocol.
This cell line contains Kit mutated at positions V560G and D816V resulting in constitutive activation of the kinase. The following compounds were tested in an assay to measure direct inhibition of Kit D816V kinase activity by assaying Kit autophosphorylation at tyrosine 719 on the Kit protein.

[2] = molecular target: T2, D816V Kit (Homo sapiens, UniProt P10721, D816V); test: Kit D816V assay at Km (Caliper electrophoretic mobility shift); format: biochemical; details: 15 uM ATP, 25 C, 90 minutes
T2 construct: purchased Carna Bioscience 08-156
T2 sequence (P10721 26-976 D816V): as the sequence (P10721 26-976 V560G/D816V) above, with G535V counted along it
Description: In order to assess the activity of chemical compounds against the relevant kinase of interest, the Caliper LifeSciences electrophoretic mobility shift technology platform is used. Fluorescently labeled substrate peptide is incubated in the presence of kinase and ATP so that a […] proportion of the peptide is phosphorylated. At the end of the reaction, the mix of phosphorylated (product) and non-phosphorylated (substrate) peptides are passed through the microfluidic system of the Caliper EZ Reader 2, under an applied potential difference. The presence of the phosphate group on the product peptide provides a difference in mass and charge between those of the substrate peptide, resulting in a separation of the substrate and product pools in the sample. As the pools pass a LEDS within the instrument, these pools are detected and resolved as separate peaks. The ratio between these peaks therefore reflects the activity of the chemical matter at that concentration in that well, under those conditions.
The reaction was stopped by the addition of 70 ul of Stop buffer (100 mM HEPES pH 7.5, 0.015% Brij 35, 35 mM EDTA and 0.2% of Coating Reagent 3 (Caliper Lifesciences)). The plate was then read on a Caliper EZReader 2 (protocol settings: −1.9 psi, upstream voltage −700, downstream voltage −3000, post sample sip 35 s).

Row | IC50 [1] [nM] | IC50 [2] [nM] | SMILES
1 | 100 to 1000 | 1.01 to 10 | Fc1cc(O[C@H]2CCCNC2)ccc1Nc1ncnc(N2CCN(c3ncc(Cc4ccccc4)cn3)CC2)n1 [Compound 238]
2 | < 10 | < 1 | CC(C)(O)c1ccc(Nc2ncnc(N3CCN(c4ncc([C@@](C)(N)c5ccc(F)cc5)cn4)CC3)n2)cc1 [Compound 193]
3 | 10 to 100 | < 1 | c1ccc(Cc2cnc(N3CCN(c4ncnc(Nc5ccc6c(c5)CNCC65CC5)n4)CC3)nc2)cc1 [Compound 97]
4 | 10 to 100 | 1.01 to 10 | C[C@H](O)Cn1cc(Nc2ncnc(N3CCN(c4ncc(Cc5ccccc5)cn4)CC3)n2)cn1 [Compound 33]
5 | 10 to 100 | < 1 | C[C@@H](O)CN1CCc2ccc(Nc3ncnc(N4CCN(c5ncc(Cc6ccccc6)cn5)CC4)n3)cc2C1 [Compound 220]
6 | 10 to 100 | < 1 | CC(C)(O)[C@H](O)c1ccc(Nc2ncnc(N3CCN(c4ncc(Cc5ccccc5)cn4)CC3)n2)cc1 [Compound 121]
7 | 10 to 100 | < 1 | Nc1nc(N2CCN(c3ncnc(Nc4ccc(N5CCC[C@@H](O)C5)cc4)n3)CC2)ncc1Cc1ccccc1 [Compound 231]
8 | < 10 | < 1 | OC1(c2ccc(Nc3ncnc(N4CCN(c5ncc(Cc6ccccc6)cn5)CC4)n3)cc2)CCCNC1 (centres unmarked) [Compound 236]
9 | 10 to 100 | < 1 | Cc1nn(CC(C)(C)O)cc1Nc1ncnc(N2CCN(c3ncc(Sc4ccccc4F)cn3)CC2)n1 [Compound 209]
10 | < 10 | < 1 | CC(C)(c1ccccc1)c1cnc(N2CCN(c3ncnc(Nc4ccc([C@H](O)CO)cc4)n3)CC2)nc1 [Compound 119]
11 | < 10 | < 1 | CC(C)(O)Cn1cc(Nc2ncnc(N3CCN(c4ncc([C@@](C)(O)c5ccc(F)cc5)cn4)CC3)n2)cn1 [Compound 208]
12 | 10 to 100 | < 1 | c1ccc(Cc2cnc(N3CCN(c4ncnc(Nc5ccc(O[C@H]6CCNC6)cc5)n4)CC3)nc2)cc1 [Compound 108]
13 | 10 to 100 | 1.01 to 10 | Fc1cccc(Cc2cnc(N3CCN(c4ncnc(Nc5ccc6c(c5)CNCC6)n4)CC3)nc2)c1 [Compound 80]
14 | 10 to 100 | < 1 | C[C@H](c1ccccc1)c1cnc(N2CCN(c3ncnc(Nc4cnn(C[C@@H]5CNCCO5)c4)n3)CC2)nc1 [Compound 186, N-(1-((S)-morpholin-2-ylmethyl)-1H-pyrazol-4-yl)-4-(4-(5-((R)-1-phenylethyl)pyrimidin-2-yl)piperazin-1-yl)-1,3,5-triazin-2-amine]
15 | 10 to 100 | < 1 | C[C@@H](c1ccccc1)c1cnc(N2CCN(c3ncnc(Nc4ccc(N5CCC[C@@H](O)C5)cc4)n3)CC2)nc1 [Compound 224]
16 | < 10 | < 1 | C[C@H](O)CN1CCc2ccc(Nc3ncnc(N4CCN(c5ncc(Cc6ccccc6)cn5)CC4)n3)cc2C1 [Compound 221]
17 | 100 to 1000 | 1.01 to 10 | Cc1c(Nc2ncnc(N3CCN(c4ncc(Sc5ccccc5F)cn4)[C@H](C)C3)n2)cnn1C[C@H](O)CO [Compound 264]
18 | 10 to 100 | 1.01 to 10 | O=C1CCc2ccc(Nc3ncnc(N4CCN(c5ncc(Cc6ccccc6)cn5)C(CCO)C4)n3)cc2N1 (centres unmarked) [Compound 213]
19 | 10 to 100 | < 1 | Cn1cc(Nc2ncnc(N3CCN(c4ncc([C@](C)(O)c5ccc(F)cc5)cn4)CC3)n2)cn1 [Compound 39]
20 | 10 to 100 | < 1 | c1ccc(Cc2cnc(N3CCN(c4ncnc(Nc5cnn(C[C@@H]6COCCO6)c5)n4)CC3)nc2)cc1 [Compound 134]
21 | 10 to 100 | 1.01 to 10 | Fc1ccc(OCc2cnc(N3CCN(c4ncnc(Nc5cnn(C[C@@H]6CNCCO6)c5)n4)CC3)nc2)cc1 [Compound 253]
22 | 100 to 1000 | 1.01 to 10 | Fc1cccc(Cc2cnc(N3CCN(c4ncnc(Nc5cnn(C[C@@H]6CNCCO6)c5)n4)CC3)nc2)c1 [Compound 197]

Further lines, the compound ahead of its results:

Row | SMILES | IC50 [1] [nM] | IC50 [2] [nM]
23 | OC[C@H](O)Cn1cc(Nc2ncnc(N3CCN(c4ncc(Cc5ccccc5)cn4)CC3)n2)cn1 [Compound 66] | 10 to 100 | < 1
24 | OC[C@@H](O)COc1cccc(Nc2ncnc(N3CCN(c4ncc(Cc5ccccc5)cn4)CC3)n2)c1 [Compound 130] | 10 to 100 | 1.01 to 10
25 | Cc1nc(N2CCN(c3ncnc(Nc4ccc5c(c4)CNCC5)n3)CC2)ncc1Cc1ccccc1 [Compound 70] | 100 to 1000 | 1.01 to 10
26 | Nc1nc(N2CCN(c3ncnc(Nc4cnc5c(c4)CNCC5)n3)CC2)ncc1Cc1ccccc1 [Compound 78] | 10 to 100 | < 1
27 | OCC(O)c1ccc(Nc2ncnc(N3CCN(c4ncc(Cc5ccccc5)cn4)CC3)n2)cc1 (centres unmarked) [Compound 55] | 10 to 100 | < 1
28 | c1cnc(N2CCN(c3ncnc(Nc4cnn(C[C@@H]5CNCCO5)c4)n3)CC2)nc1 [Compound 6] | > 10000 | > 100
29 | Cn1cc(Nc2ncnc(N3CCN(c4ncc([C@@](C)(O)c5ccc(F)cc5)cn4)CC3)n2)cn1 (single isomer, unassigned) [Compound 38] | 10 to 100 | < 1
30 | CC(C)(c1ccccc1)c1cnc(N2CCN(c3ncnc(Nc4cnn(C[C@@H]5CNCCO5)c4)n3)CC2)nc1 [Compound 244] | 10 to 100 | < 1
31 | CC(C)(O)Cn1cc(Nc2ncnc(N3CCN(c4ncc([C@](C)(O)c5ccc(F)cc5)cn4)CC3)n2)cn1 [Compound 207] | 10 to 100 | < 1
32 | C[C@](N)(c1ccc(F)cc1)c1cnc(N2CCN(c3ncnc(Nc4ccccc4)n3)CC2)nc1 [Compound 29] | 10 to 100 | < 1
33 | Cc1nn(C2COC2)cc1Nc1ncnc(N2CCN(c3ncc(Sc4ccccc4F)cn3)CC2)n1 [Compound 146] | 10 to 100 | 1.01 to 10
34 | Cc1[nH]ncc1Nc1ncnc(N2CCN(c3ncc(Sc4ccccc4F)cn3)CC2)n1 [Compound 20] | 10 to 100 | < 1
35 | c1ccc(Cc2cnc(N3CCN(c4ncnc(Nc5cnn(C[C@@H]6COCCN6)c5)n4)CC3)nc2)cc1 [Compound 126] | 100 to 1000 | 1.01 to 10
36 | CN1CCNC[C@H]1Cn1cc(Nc2ncnc(N3CCN(c4ncc(Cc5ccccc5)cn4)CC3)n2)cn1 [Compound 176] | 10 to 100 | 1.01 to 10
37 | CN1CCC(CCNc2ncnc(N3CCN(c4ncc(Cc5ccccc5)cn4)CC3)n2)CC1 [Compound 35] | > 10000 | > 100
38 | [2H]C([2H])(c1ccccc1)c1cnc(N2CCN(c3ncnc(Nc4cnn(C[C@@H]5CNCCO5)c4)n3)CC2)nc1 [Compound 141] | 10 to 100 | 1.01 to 10
39 | CC(C)(c1ccccc1)c1cnc(N2CCN(c3ncnc(Nc4ccc([C@@H](O)CO)cc4)n3)CC2)nc1 [Compound 120] | 10 to 100 | < 1
40 | Nc1nc(N2CCN(c3ncnc(Nc4cnn(CC5CNCCO5)c4)n3)CC2)ncc1Cl (centres unmarked) [Compound 34] | 1000 to 10000 | 10 to 100
41 | Cc1nn(C[C@@H]2CNCCO2)cc1Nc1ncnc(N2CCN(c3ncc(Cc4ccccc4)cn3)CC2)n1 [Compound 184] | 10 to 100 | 1.01 to 10
42 | OC[C@@H]1CN(c2ncnc(Nc3cnn(CC4CNCCO4)c3)n2)CCN1c1ncc(Cc2ccccc2)cn1 (some centres unmarked) [Compound 248] | 10 to 100 | < 1
43 | Cc1c(Nc2ncnc(N3CCN(c4ncc(Cc5ccccc5)c(N)n4)CC3)n2)cnn1C[C@@H]1CNCCO1 [Compound 245] | 10 to 100 | < 1
44 | c1ccc(Cc2cnc(N3CCN(c4ncnc(Nc5ccc6cn[nH]c6c5)n4)CC3)nc2)cc1 [Compound 21] | 100 to 1000 | 1.01 to 10
45 | C[C@](O)(c1ccccc1)c1cnc(N2CCN(c3ncnc(Nc4ccc(N5CCOCC5)cc4)n3)CC2)nc1 [Compound 235] | < 10 | < 1
46 | CC(c1ccccc1)c1cnc(N2CCN(c3ncnc(Nc4ccc5c(c4)CNCC5)n3)CC2)nc1 (centres unmarked) [Compound 71] | 10 to 100 | < 1
